The values below come from US8633324B2, “Denibulin di-hydrochloride” (Medicinova, Inc., priority 2011, dated 2014).

In brackets after ≈: the same amount, converted by molar mass. Read-outs that look alike come from different tables or passages of the source.

A word on the solubility: it is how much of the substance goes into solution per volume.

Common to all, as to type: physicochemical
Series [1] is described as follows: Aqueous solubility, 24 hours equilibration in water at 25° C., HPLC, pH and XRPD of residue. The settings on record: for XRPD of solid residue: residue after 24 hours equilibration in water at 25° C. As for the experimental part:
Briefly, quantitative high performance liquid chromatography (HPLC) was used to determine the aqueous solubility. X-ray powder diffraction spectrometry was also used to characterize the thermodynamic solubility of the mono-hydrochloride and di-hydrochloride salts of MN-029. After a 24 hours equilibration of each salt form in water at 25° C., the residual solid material was separated from the aqueous solution and the pH of the aqueous sample was measured. The XRPD spectrum of the solid residue obtained from the MN-029 di-hydrochloride vial indicated the solid material to be the mono-hydrochloride salt of MN-029. […] Table 4 illustrates the data from aqueous solubility studies of the mono-hydrochloride and di-hydrochloride salts of MN-029.
The suspension was equilibrated at 25° C. for 24 hours then pH was measured. The suspension was filtered and the filtrate was diluted by a factor of 101. Quantization by HPLC with a reference to a standard solution. Different volumes of the standard, diluted, and undiluted solution were injected and solubility was calculated by integration of the peak found at the same time as the principle peak in the standard solution.

Series [2] is described as follows: Gravimetric Vapor Sorption (GVS) hygroscopicity. The settings on record: for Weight change: GVS. The text has this: Moreover, neither the mono-hydrochloride salt or the di-hydrochloride salt of MN-029 show any significant change in phase as measured by XRPD analysis of samples subjected to GVS analysis (see FIG. 6).
Series [3] can be described thus: Log P, Log Pion, Log D by potentiometric titration (Sirius GlpKa, octanol:water). The settings on record: octanol:ionic-strength adjusted water. From the text:
Most drugs have an ideal log P value and any deviation from this idealized value results in reduced absorption, slow transport of drug to the site of action and consequently, a decrease in biological activity. Table 8, illustrates the predicted and measured values for partition coefficients of MN-029 di-hydrochloride. The data was collected by potentiometric titration using a Sirius GlpKa instrument using three ratios of octanol:ionic-strength adjusted water to generate Log P, Log Pion and Log D values and the raw data was analyzed using Refinement Pro Software V.1.0. The predicted value of Log P was obtained using ACD V. software and Syracuse KOWWIN V.1.67 softwares.

Series [4] can be described thus: Solubility as a function of pH in buffers without and with 15% HPBCD. The settings on record: for solubility at 5 days: thermodynamic from solid, read-out: MN-029 Solubility. On the procedure:
Buffers were prepared to cover a pH range of 2 to 7. Approximately 5 to 10 milligrams of drug was weighed into an HPLC vial to which 1.00 mL of the appropriate buffer was added. The solutions were vortexed briefly and were then shaken for five days on an orbital shaker. The prolonged shaking was carried out because slow equilibration had been observed during the initial formulation studies with different salt forms of MN-029.
Buffers with 15% HPBCD were prepared from the previous buffers. One and a half grams of HPBCD was weighed into each of several 10 mL volumetric flasks. HPBCD was dissolved in and diluted to volume with the appropriate buffer. 15 to 20 milligrams of MN-029 di-hydrochloride was weighed out into an tared HPLC vial. To the di-hydrochloride salt was added 1.00 mL of each buffer and the solution was vortexed briefly to dissolve the salt. The solutions were placed on an orbital shaker for five days. Solubility results are shown in Table 10, and the pH solubility profile for the drug in the absence of HPBCD is shown in FIG. 8.

Series [5] can be described thus: pKa, predicted (ACD) versus measured (Sirius GlpKa). From the text:
MN-029 has a primary, secondary and tertiary amino group. The pKa's of these amino groups, therefore, should play a role in aqueous solubility, stability and pharmacokinetics. Accordingly, the present inventor compared the predicted pKa's of the alanyl and ring nitrogen atoms to their measured pKa values and unexpectedly found a significant difference between the measured and predicted pKa values for the benzimidazole nitrogen atoms. Thus, for the acidic >N—H group of imidazole, there is approximately a 6-fold difference between the predicted and measured pKa values as shown in Scheme 3. For the more basic ring nitrogen (—N═), however, the difference between observe red and predicted pKa values is 30-fold. That is, the measured value of basicity for the unprotonated ring nitrogen is much lower than the predicted value.
Predicted pKa values were calculated using ACD pKa prediction software v. 9. Actual pKa values were collected on a Sirius GlpKa instrument with a D-PAS attachment. Measurements were made at 25° C. in aqueous solution by UV and in methanol water mixtures by potentiometry. The ionic-strength of the titration media was adjusted with 0.15 M aqueous KCl. The values found in methanol water mixtures were corrected to 0% co-solvent via a Yashuda-Shedlovsky extrapolation. The data were refined using Refinement Pro software v. 1.0. No difference in pKa between the tautomers of MN-029 di-hydrochloride were detected experimentally or theoretically.

Series [6] in a line: Evaluation of other salt forms as active pharmaceutical ingredient. The settings on record: reasons including instability, hygroscopicity and deliquescence even at moderate humidity. As for the experimental part:
The advantageous nature of the physicochemical properties of the di-hydrochloride salt of MN-029 seems to be borne out, not just in comparison with the mono-hydrochloride salt but also with three other salts that were prepared to determine each salt's potential to be an active pharmaceutical ingredient. These other salt forms were the mesylate, malonate and sulfate salts of denibulin. Each was deemed unsuitable for use in pharmaceutical formulations because of one or more reasons, including instability, hygroscopicity and deliquescence even at moderate humidity.

Setting [7] is: water, 25° C., equilibration for 24 hours.

In the case of `COC(=O)Nc1nc2cc(Sc3ccc(NC(=O)[C@H](C)N)cc3)ccc2[nH]1.Cl` [MN-029 mono-hydrochloride, reference compound], the “XRPD of solid residue” value in series [1] (listed as A063866) was “No significant difference”; in series [1] (listed as MN-029*HCl), “No significant”. For the same compound, the Concentration of filtrate in series [1] (setting [7]) is reported as 0.63 mg/ml of free base. Besides, the “pH of saturated solution” value in series [1] (setting [7]) is 2.37. Besides, the Weight change result is reported as “+1.04 % w/w” in series [2] (0% RH to 40% RH); “Reversible uptake of +2.12% w/w” in series [2] (40% RH to 90% RH, listed as A063866); “+2.12 % w/w” in series [2] (40% RH to 90% RH, listed as MN029*HCl); −3.39 % w/w in series [2] (90% RH to 0% RH). In series [2] (sample subjected to GVS), the “XRPD of residue after GVS” value is recorded as “No significant difference”. Moreover, the “Measured LogP” value in series [3] was determined as 2.64. Moreover, the “Measured LogPion(cation)” value in series [3] stood at 0.93. The “Measured LogD7.4” value in series [3] (pH 7.4) is recorded as 2.10.
With `COC(=O)Nc1nc2ccc(Sc3ccc(NC(=O)[C@H](C)N)cc3)cc2[nH]1` [MN-029, carbamic acid N-[6-[[4-[[(2S)-2-amino-1-oxopropyl]amino]phenyl]thio]-1H-benzimidazol-2-yl]-methyl ester], the “MN-029 Solubility” value in series [4] (Without HPBCD, buffer pH 2.0, final pH 2.10, five days shaking) came to 6160 µg/mL. Further, the solubility at 5 days in series [4] (aqueous buffer with 15% HPBCD, pH 2, aqueous with cosolvent or surfactant or cyclodextrin, With 15% HPBCD, buffer pH 2.0, final pH 2.03) is over 20900 µg/mL; in series [4] (aqueous buffer with 15% HPBCD, pH 3, aqueous with cosolvent or surfactant or cyclodextrin, With 15% HPBCD, buffer pH 3.0, final pH 3.11), over 24400 µg/mL; in series [4] (aqueous buffer with 15% HPBCD, pH 4, aqueous with cosolvent or surfactant or cyclodextrin, With 15% HPBCD, buffer pH 4.0, final pH 3.98), over 21500 µg/mL; in series [4] (aqueous buffer with 15% HPBCD, pH 5, aqueous with cosolvent or surfactant or cyclodextrin, With 15% HPBCD, buffer pH 5.0, final pH 5.24), over 23000 µg/mL; in series [4] (aqueous buffer with 15% HPBCD, pH 6, aqueous with cosolvent or surfactant or cyclodextrin, With 15% HPBCD, buffer pH 6.0, final pH 6.27), over 24300 µg/mL; in series [4] (aqueous buffer with 15% HPBCD, pH 7, aqueous with cosolvent or surfactant or cyclodextrin, With 15% HPBCD, buffer pH 7.0, final pH 6.90), over 22700 µg/mL. In addition, the solubility at 5 days was 290 µg/mL (≈ 752 µM) in series [4] (aqueous buffer, pH 3, aqueous buffer, Without HPBCD, buffer pH 3.0, final pH 3.35); 560 µg/mL (≈ 1450 µM) in series [4] (aqueous buffer, pH 4, aqueous buffer, Without HPBCD, buffer pH 4.0, final pH 3.92); 150 µg/mL (≈ 389 µM) in series [4] (aqueous buffer, pH 5, aqueous buffer, Without HPBCD, buffer pH 5.0, final pH 4.93); 130 µg/mL (≈ 337 µM) in series [4] (aqueous buffer, pH 6, aqueous buffer, Without HPBCD, buffer pH 6.0, final pH 6.24); 26 µg/mL (≈ 67.5 µM) in series [4] (aqueous buffer, pH 7, aqueous buffer, Without HPBCD, buffer pH 7.0, final pH 6.96). Moreover, the “difference between predicted and measured pKa values” in series [5] (acidic >N—H group of imidazole) is recorded as about 6 fold; in series [5] (alanyl amino group) it was “no significant difference”. Further, the “difference between observed and predicted pKa values” in series [5] (more basic ring nitrogen (—N═)) is given as 30 fold.
With `O=S(=O)(O)O` [sulfate], the “suitability for use in pharmaceutical formulations” value in series [6] was “unsuitable”.
Same read-out and setting: to malonate belongs “unsuitable”.
